Patent publication US20160178605A1, “Electrical Cell-substrate Impedance Sensor (ECIS)” (priority 2015, published 2016)

Tested on: MCF-7 cells
Assay: SiNW-ECIS impedance and capacitance response of MCF-7 cells to antitubulin drugs
Format: cell-based, human
Conditions: PTX 0.1 nano-moles per liter; for normalized capacitance change (ΔC %) vs control sample / normalized impedance change (ΔZ %) vs control sample: MCF-7, 2 hours (T1) after drug incubation; for normalized capacitance change (ΔC %) vs control sample / normalized impedance change (ΔZ %) vs control sample / change in norm of impedance of treated cells between T1 and T2 / norm of capacitive changes, control sample more than drug treated values: ABZ 2.1 nano-moles per liter; for normalized impedance change (ΔZ %) vs control sample: mean; for norm of capacitive changes, control sample more than drug treated values: MCF-7, 6 hours (T2) after drug incubation
Procedure: In this example, the diagnostic response of cells membrane to extremely low dose of antitubulin drugs is investigated. Initially, MCF-7 cell lines, isolated from grade I human breast tumors, were obtained from the National Cell Bank of Iran (Pasteur Institute). Then, cells were maintained in a CO2 incubator (37° C., 5% CO2) in RPMI-1640 medium supplemented with 5% fetal bovine serum, and 1% penicillin/streptomycin. The fresh medium was replaced every other day. Then, the cultured cells were dropped on the surface of the SiNW-ECIS, designed and fabricated pursuant to teachings of the present application. Prior to each experiment, cells were trypsinized to be detached from the substrate and resuspended on the SiNW surface. To minimize the effect of trypsinization, the procedure may last for less than 4 minutes at room temperature of about 20° C. The samples were held in an incubator for about 4 hours to achieve cells attachment on the SiNWs. Thereafter, the ABZ drug with low concentrations of about 2.1 nano-moles per liter and the PTX drug with low concentrations of about 0.1 nano-moles per liter were added to individual samples. Finally, the signal recording and biological assays were investigated about 2 hours and 6 hours after the drug treatment (6 hours and 10 hours after the beginning of culturing process).
Referring to FIGS. 12A-12G, comparative normalized diagrams of impedance (designated by ΔZ % and represented by solid black lines) and capacitance changes (designated by ΔC % and represented by dashed grey lines) are illustrated for MCF-7 cells seeded on SiNW electrodes after treating by 2.1 nano-moles per liter of ABZ and 0.1 nano-moles per liter of PTX. The time interval between the drug incubation and the signal extraction are 2 hours (designated by T1) and 6 hours (designated by T2). In addition, the same diagrams are plotted for control sample prepared with no drug treatment stage.
According to the method described in the present example, the samples were maintained in an incubator so that the signal extraction was repeated 10 hours after cells dropping (6 hours after drug incubation for treated samples) to monitor the time evolution of drug induced MT polymerization/depolymerization on bioelectrical response of the membrane.

[1] = MCF-7, 2 hours (T1) vs 6 hours (T2) after drug incubation

Row | Compound | normalized capacitance change (ΔC %) vs control sample | normalized impedance change (ΔZ %) vs control sample | change in norm of impedance of treated cells between T1 and T2 [1] | norm of capacitive changes, control sample more than drug treated values | time dependent variation in capacitive behavior between T1 and T2 [1]
1 | CCCSc1ccc2nc(NC(=O)OC)[nH]c2c1 [ABZ, Albendazole] | 70% | 25% | about 60% | about 90% | 
2 | CC(=O)O[C@H]1C(=O)[C@@]2(C)[C@H]([C@H](OC(=O)c3ccccc3)[C@]3(O)C[C@H](OC(=O)[C@H](O)[C@@H](NC(=O)c4ccccc4)c4ccccc4)C(C)=C1C3(C)C)[C@]1(OC(C)=O)CO[C@@H]1C[C@@H]2O [PTX, Paclitaxel] | about 60% | about 50% | 15% | ~75% | about 85%
